Experimental data: patent US7045532B2 (Millennium Pharmaceuticals, Inc., priority 1999, dated 2006)
Where two headings read alike, the source gives them in different places.

Key:
ACE-2 [1] = molecular target: T1, ACE-2 (Homo sapiens, UniProt Q9BYF1); assay: ACE-2 Competitive Substrate Assay (ACS Assay); format: biochemical; settings: Ki class, compounds tested in 5% DMSO, read-out: Human ACE-2 Activity
T1 construct: a stop codon inserted after the serine immediately preceding the transmembrane domain; made in house; host or cells: CHO K1 cells (transient transfection, purified from conditioned medium)
T1 sequence (Q9BYF1 18-740 limits assumed): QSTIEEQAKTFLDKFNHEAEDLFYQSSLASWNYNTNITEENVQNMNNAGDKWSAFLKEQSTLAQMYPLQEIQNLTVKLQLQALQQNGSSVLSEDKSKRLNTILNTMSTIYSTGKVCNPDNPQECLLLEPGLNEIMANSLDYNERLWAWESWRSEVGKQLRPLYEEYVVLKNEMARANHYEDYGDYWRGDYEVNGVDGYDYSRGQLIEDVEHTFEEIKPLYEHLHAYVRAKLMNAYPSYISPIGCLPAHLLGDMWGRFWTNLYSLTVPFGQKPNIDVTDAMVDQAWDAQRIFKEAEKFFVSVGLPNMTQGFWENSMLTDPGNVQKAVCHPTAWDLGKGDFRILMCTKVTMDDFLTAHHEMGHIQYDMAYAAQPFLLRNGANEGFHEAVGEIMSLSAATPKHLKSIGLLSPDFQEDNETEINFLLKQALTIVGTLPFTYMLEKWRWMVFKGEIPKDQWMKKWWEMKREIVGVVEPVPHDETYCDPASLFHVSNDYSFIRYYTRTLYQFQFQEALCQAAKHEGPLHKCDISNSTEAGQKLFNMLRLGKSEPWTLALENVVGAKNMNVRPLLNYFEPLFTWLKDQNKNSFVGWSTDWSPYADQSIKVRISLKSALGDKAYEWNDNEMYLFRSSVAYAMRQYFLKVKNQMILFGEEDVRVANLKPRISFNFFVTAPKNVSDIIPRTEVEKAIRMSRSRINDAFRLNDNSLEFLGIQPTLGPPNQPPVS

ACE (Sigma, A2580) = molecular target: T2, ACE (Sigma, A2580) (Sus scrofa, UniProt F1RRW5); assay: ACE enzymatic activity assay; format: biochemical, porcine; settings: Ki class; compounds tested in 5% DMSO, 12 concentrations
T2 construct: ACE from porcine kidney; purchased Sigma A2580; host or cells: porcine kidney
T2 sequence (F1RRW5 34-1309): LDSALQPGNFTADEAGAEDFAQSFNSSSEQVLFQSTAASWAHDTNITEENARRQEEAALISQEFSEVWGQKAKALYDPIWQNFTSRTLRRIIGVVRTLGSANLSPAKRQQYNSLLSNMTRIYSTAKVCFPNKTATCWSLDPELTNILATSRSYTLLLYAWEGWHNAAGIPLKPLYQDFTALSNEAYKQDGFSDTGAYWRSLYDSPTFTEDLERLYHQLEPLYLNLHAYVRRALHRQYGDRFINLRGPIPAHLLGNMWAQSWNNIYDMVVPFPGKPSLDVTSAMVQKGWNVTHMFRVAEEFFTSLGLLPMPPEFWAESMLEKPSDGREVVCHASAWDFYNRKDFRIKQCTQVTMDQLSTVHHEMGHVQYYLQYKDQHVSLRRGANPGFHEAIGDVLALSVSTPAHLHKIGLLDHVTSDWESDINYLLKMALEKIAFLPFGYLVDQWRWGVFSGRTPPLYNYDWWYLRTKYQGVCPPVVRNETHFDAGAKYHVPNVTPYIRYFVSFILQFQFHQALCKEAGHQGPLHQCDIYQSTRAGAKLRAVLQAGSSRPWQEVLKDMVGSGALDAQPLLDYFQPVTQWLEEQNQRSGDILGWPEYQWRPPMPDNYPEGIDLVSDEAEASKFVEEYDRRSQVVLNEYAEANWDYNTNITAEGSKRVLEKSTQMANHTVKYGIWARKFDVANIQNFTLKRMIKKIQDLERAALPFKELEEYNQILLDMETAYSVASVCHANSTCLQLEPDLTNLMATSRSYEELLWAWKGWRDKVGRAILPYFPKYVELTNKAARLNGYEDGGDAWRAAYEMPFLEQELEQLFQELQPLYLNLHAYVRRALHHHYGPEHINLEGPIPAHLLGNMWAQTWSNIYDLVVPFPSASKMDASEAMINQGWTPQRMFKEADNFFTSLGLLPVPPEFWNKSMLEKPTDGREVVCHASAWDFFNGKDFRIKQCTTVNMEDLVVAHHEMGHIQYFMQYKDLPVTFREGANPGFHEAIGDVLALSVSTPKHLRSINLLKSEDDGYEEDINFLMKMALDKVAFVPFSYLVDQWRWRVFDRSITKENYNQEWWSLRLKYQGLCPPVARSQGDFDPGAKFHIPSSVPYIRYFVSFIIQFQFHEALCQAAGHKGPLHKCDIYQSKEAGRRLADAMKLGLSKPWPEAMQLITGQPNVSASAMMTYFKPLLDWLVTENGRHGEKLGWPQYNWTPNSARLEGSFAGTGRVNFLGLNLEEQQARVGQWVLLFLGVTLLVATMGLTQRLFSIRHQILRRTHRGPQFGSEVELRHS
In short: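 ACE (1 nM final) in 50 mM HEPES, 300 mM NaCl, 0.01% Brij-35, pH 7.5, with compound in 5% DMSO at 12 concentrations, 25 °C. Substrate cleavage run ~30 min, stopped with EDTA; fluorescence read at excitation 320 nm, emission 405 nm.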

ACE-2 [2] = molecular target: ACE-2 (Rattus norvegicus, UniProt Q5EGZ1); assay: ACE-2 Competitive Substrate Assay, rat ACE-2; format: biochemical; settings: Ki class, compounds tested in 5% DMSO
Sequence of ACE-2 (Rattus norvegicus, UniProt Q5EGZ1) (Q5EGZ1 18-805): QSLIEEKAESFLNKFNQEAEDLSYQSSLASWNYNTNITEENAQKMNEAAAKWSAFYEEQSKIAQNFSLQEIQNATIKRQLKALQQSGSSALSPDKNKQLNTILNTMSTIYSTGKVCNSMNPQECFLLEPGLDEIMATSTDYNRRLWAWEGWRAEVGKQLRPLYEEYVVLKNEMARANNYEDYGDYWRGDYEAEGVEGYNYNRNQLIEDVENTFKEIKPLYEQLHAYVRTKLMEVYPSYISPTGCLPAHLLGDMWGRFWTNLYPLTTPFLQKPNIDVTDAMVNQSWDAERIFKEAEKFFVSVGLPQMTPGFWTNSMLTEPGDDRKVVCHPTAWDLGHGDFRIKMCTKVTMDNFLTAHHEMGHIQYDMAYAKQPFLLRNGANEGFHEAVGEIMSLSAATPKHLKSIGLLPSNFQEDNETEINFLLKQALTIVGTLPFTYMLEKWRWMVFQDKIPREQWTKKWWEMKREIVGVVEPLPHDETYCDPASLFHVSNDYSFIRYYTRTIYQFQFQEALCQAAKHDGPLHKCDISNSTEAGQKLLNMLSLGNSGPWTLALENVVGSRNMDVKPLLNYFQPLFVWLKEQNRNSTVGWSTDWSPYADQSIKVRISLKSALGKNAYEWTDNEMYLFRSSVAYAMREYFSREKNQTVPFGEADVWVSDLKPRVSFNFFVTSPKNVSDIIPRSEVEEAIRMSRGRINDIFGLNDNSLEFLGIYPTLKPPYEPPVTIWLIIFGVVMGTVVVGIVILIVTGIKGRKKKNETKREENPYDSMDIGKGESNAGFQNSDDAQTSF
Procedure: ACE-2 enzymatic activity was assayed in microtitre plates by the following procedure. The ACE-2 assay buffer used contained 50 mM MES (Boehringer-Mannheim), 300 mM NaCl (Sigma) and 0.01% Brij-35 (Pierce Chemical Co.) at pH 6.5.
Reactions were mixed and incubated at 25° C.
The activity of the test compounds was investigated using the procedure outlined above. The compounds were tested in 5% DMSO. Enzyme activity was measured at 12 compound concentrations.

Carboxypeptidase A = molecular target: T3, Carboxypeptidase A (Bos taurus, UniProt P00730); assay: Carboxypeptidase A activity assay; format: biochemical; settings: Ki class; compounds tested in 5% DMSO, 12 concentrations
T3 sequence (P00730 111-419): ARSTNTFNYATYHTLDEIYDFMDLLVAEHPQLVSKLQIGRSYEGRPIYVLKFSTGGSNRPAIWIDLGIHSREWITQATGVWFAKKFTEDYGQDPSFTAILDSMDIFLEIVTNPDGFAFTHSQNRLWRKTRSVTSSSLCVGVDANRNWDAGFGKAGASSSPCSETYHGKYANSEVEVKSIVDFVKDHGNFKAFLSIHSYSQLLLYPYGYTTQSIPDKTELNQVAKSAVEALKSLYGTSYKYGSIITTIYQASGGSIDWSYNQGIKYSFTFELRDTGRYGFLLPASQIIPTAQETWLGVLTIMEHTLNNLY
In short: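 Bovine carboxypeptidase A activity followed at 328 nm in 5% DMSO, reaction stopped with EDTA. Activity measured at 12 compound concentrations. Ki derived from apparent Ki as Ki=Kiapp/(1+[S]/Km).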

CC(C)CC(N[C@H](Cc1c[nH]cn1)C(=O)O)C(=O)O (single isomer, unassigned) [BI, 2-[1-Carboxy-2-(1H-imidazol-4-yl)-ethylamino]4-methyl-pentanoic acid]
Ki (ACE-2 [1]; 12 concentrations): > 0.5 µM
Ki (ACE (Sigma, A2580)): > 50 µM
Ki (ACE-2 [2]; 12 concentrations): > 0.5 µM
Ki (Carboxypeptidase A): > 50 µM

CC(C)CC(N[C@@H](Cc1c[nH]cn1)C(=O)O)C(=O)O (single isomer, unassigned) [BK, 2-[1-Carboxy-2-(1H-imidazol-4-yl)-ethylamino]4-methyl-pentanoic acid]
Ki (ACE-2 [1]; 12 concentrations): > 0.5 µM
Ki (ACE (Sigma, A2580)): > 50 µM
Ki (ACE-2 [2]; 12 concentrations): 0.1 to 0.5 µM
Ki (Carboxypeptidase A): > 50 µM

CC(C)CC(N[C@@H](Cc1c[nH]cn1)C(=O)O)C(=O)O (single isomer, unassigned) [BL, 2-[1-Carboxy-2-(1H-imidazol-4-yl)-ethylamino]4-methyl-pentanoic acid]
Ki (ACE (Sigma, A2580)): 10 to 50 µM
Ki (ACE-2 [2]; 12 concentrations): > 0.5 µM
Ki (Carboxypeptidase A): > 50 µM

COC(=O)[C@H](Cc1c[nH]cn1)NC(CC(C)C)C(=O)O (single isomer, unassigned) [CT, 2-[2-(1H-Imidazol-4-yl)-1-methoxycarbonyl-ethylamino]-4-methyl-pentanoic acid]
Ki (ACE-2 [1]; 12 concentrations): > 0.5 µM
Ki (ACE (Sigma, A2580)): > 50 µM
Ki (ACE-2 [2]; 12 concentrations): > 0.5 µM
Ki (Carboxypeptidase A): > 50 µM

COC(=O)[C@H](Cc1c[nH]cn1)NC(CC(C)C)C(=O)O (single isomer, unassigned) [CU, 2-[2-(1H-Imidazol-4-yl)-1-methoxycarbonyl-ethylamino]-4-methyl-pentanoic acid]
Ki (ACE (Sigma, A2580)): > 50 µM
Ki (ACE-2 [2]; 12 concentrations): 0.1 to 0.5 µM
Ki (Carboxypeptidase A): > 50 µM

CCCC(NC(Cc1c[nH]cn1)C(=O)O)C(=O)O (single isomer, unassigned) [DJ, 2-[1-Carboxy-2-(1H-imidazol-4-yl)-ethylamino)pentanoic acid]
Ki (ACE-2 [1]; 12 concentrations): > 0.5 µM
Ki (ACE (Sigma, A2580)): > 50 µM
Ki (ACE-2 [2]; 12 concentrations): 0.1 to 0.5 µM
Ki (Carboxypeptidase A): > 50 µM

CCCC(N[C@@H](Cc1c[nH]cn1)C(=O)O)C(=O)O (single isomer, unassigned) [DK, 2-[1-Carboxy-2-(1H-imidazol-4-yl)-ethylamino)pentanoic acid]
Ki (ACE-2 [1]; 12 concentrations): > 0.5 µM
Ki (ACE (Sigma, A2580)): 10 to 50 µM
Ki (ACE-2 [2]; 12 concentrations): > 0.5 µM
Ki (Carboxypeptidase A): > 50 µM

CC(C)CC(N[C@@H](Cc1cn(Cc2ccccc2)cn1)C(=O)O)C(=O)O (single isomer, unassigned) [DL, 2-[2-(1-Benzyl-1H-imidazol-4-yl)-1-carboxy-ethylamino]-4-methyl-pentanoic acid]
Ki (ACE-2 [1]; 12 concentrations): > 0.5 µM
Ki (ACE (Sigma, A2580)): > 50 µM
Ki (ACE-2 [2]; 12 concentrations): > 0.5 µM
Ki (Carboxypeptidase A): > 50 µM

O=C(O)C(Cc1ccc(O)cc1)N[C@@H](Cc1c[nH]cn1)C(=O)O (single isomer, unassigned) [DN, 2-[1-Carboxy-2-(4-hydroxy-phenyl)-ethylamino]-3-(1H-imidazol-4-yl)-propionic acid]
Ki (ACE-2 [1]; 12 concentrations): > 0.5 µM
Ki (ACE (Sigma, A2580)): > 50 µM
Ki (ACE-2 [2]; 12 concentrations): > 0.5 µM
Ki (Carboxypeptidase A): > 50 µM

O=C(O)C(Cc1ccc(O)cc1)N[C@@H](Cc1c[nH]cn1)C(=O)O (single isomer, unassigned) [DO, 2-[1-Carboxy-2-(4-hydroxy-phenyl)-ethylamino]-3-(1H-imidazol-4-yl)-propionicacid]
Ki (ACE (Sigma, A2580)): 10 to 50 µM
Ki (ACE-2 [2]; 12 concentrations): 0.1 to 0.5 µM
Ki (Carboxypeptidase A): > 50 µM

CCCCC(N[C@@H](Cc1c[nH]cn1)C(=O)O)C(=O)O (single isomer, unassigned) [ED, 2-[1-Carboxy-2-(1H-imidazol-4-yl)-ethylamino]hexanoic acid]
Ki (ACE-2 [1]; 12 concentrations): > 0.5 µM
Ki (ACE (Sigma, A2580)): > 50 µM
Ki (ACE-2 [2]; 12 concentrations): 0.1 to 0.5 µM
Ki (Carboxypeptidase A): > 50 µM

CCCCC(N[C@@H](Cc1c[nH]cn1)C(=O)O)C(=O)O (single isomer, unassigned) [EF, 2-[1-Carboxy-2-(1H-imidazol-4-yl)-ethylamino]hexanoic acid]
Ki (ACE (Sigma, A2580)): 10 to 50 µM
Ki (ACE-2 [2]; 12 concentrations): > 0.5 µM
Ki (Carboxypeptidase A): > 50 µM

CC(C)CC(N[C@@H](Cc1cncn1COCc1ccccc1)C(=O)O)C(=O)O (single isomer, unassigned) [EN, 2-[2-(3-Benzyloxymethyl-3H-imidazol-4-yl)-1-carboxy-ethylamino]-4-methyl-pentanoic acid]
Ki (ACE-2 [1]; 12 concentrations): 0.1 to 0.5 µM
Ki (ACE (Sigma, A2580)): > 50 µM
Ki (ACE-2 [2]; 12 concentrations): 0.1 to 0.5 µM
Ki (Carboxypeptidase A): > 50 µM

CC(C)CC(N[C@@H](Cc1cncn1COCc1ccccc1)C(=O)O)C(=O)O (single isomer, unassigned) [EO, 2-[2-(3-Benzyloxymethyl-3H-imidazol-4-yl)-1-carboxy-ethylamino]-4-methyl-pentanoic acid]
Ki (ACE-2 [1]; 12 concentrations): > 0.5 µM
Ki (ACE (Sigma, A2580)): > 50 µM
Ki (ACE-2 [2]; 12 concentrations): > 0.5 µM
Ki (Carboxypeptidase A): > 50 µM

CC(C)CC(N[C@@H](Cc1c[nH]cn1)C(N)=O)C(=O)O (single isomer, unassigned) [EV, 2-[1-Carbamoyl-2-(1H-imidazol-4-yl)-ethylamino]4-methyl-pentanoic acid]
Ki (ACE-2 [1]; 12 concentrations): > 0.5 µM
Ki (ACE (Sigma, A2580)): > 50 µM
Ki (ACE-2 [2]; 12 concentrations): > 0.5 µM
Ki (Carboxypeptidase A): > 50 µM

CC(C)CC(N[C@@H](Cc1c[nH]cn1)C(=O)Nc1ccc([N+](=O)[O-])cc1)C(=O)O (single isomer, unassigned) [EX, 2-[2-(1H-Imidazol-4-yl)-1-(4-nitro-phenylcarbamoyl)ethylamino]-4-methyl-pentanoic acid]
Ki (ACE-2 [1]; 12 concentrations): > 0.5 µM
Ki (ACE (Sigma, A2580)): > 50 µM
Ki (ACE-2 [2]; 12 concentrations): > 0.5 µM
Ki (Carboxypeptidase A): > 50 µM

CC(C)CC(N[C@@H](Cc1cncn1COCc1ccccc1)C(N)=O)C(=O)O (single isomer, unassigned) [FC, 2-[2-(3-Benzyloxymethyl-3H-imidazol-4-yl)-1-carbamoyl-ethylamino]-4-methyl-pentanoic acid]
Ki (ACE (Sigma, A2580)): > 50 µM
Ki (ACE-2 [2]; 12 concentrations): > 0.5 µM
Ki (Carboxypeptidase A): > 50 µM

CCCCC(N[C@@H](Cc1cncn1Cc1ccccc1)C(=O)O)C(=O)O (single isomer, unassigned) [FZ, 2-[2-(3-Benzyl-3H-imidazol-4-yl)-1-carboxy-ethylamino]-hexanoicacid]
Ki (ACE (Sigma, A2580)): > 50 µM
Ki (ACE-2 [2]; 12 concentrations): > 0.5 µM
Ki (Carboxypeptidase A): > 50 µM

CCC(C)C(NC(Cc1cncn1Cc1ccccc1)C(=O)O)C(=O)O (single isomer, unassigned) [GD, 2-[2-(3-Benzyl-3H-imidazol-4-yl)-1-carboxy-ethylamino]-3-methyl-pentanoic acid]
Ki (ACE (Sigma, A2580)): > 50 µM
Ki (ACE-2 [2]; 12 concentrations): > 0.5 µM
Ki (Carboxypeptidase A): > 50 µM

O=C(O)C(Cc1ccccc1)N[C@@H](Cc1cnc[nH]1)C(=O)O (some centres unmarked) [EQ, 2-(1-Carboxy-2-phenyl-ethylamino)-3-(1H-imidazol-4-yl)-propionicacid]
Ki (ACE (Sigma, A2580)): > 50 µM
Ki (ACE-2 [2]; 12 concentrations): 0.1 to 0.5 µM
Ki (Carboxypeptidase A): 10 to 50 µM

CC(C)C[C@H](N[C@@H](Cc1ccn(Cc2ccccc2)n1)C(=O)O)C(=O)O [IN, (S,S)-2-[2-(1-benzyl-1H-pyrazol-3-yl)-1-carboxy-ethylamino]-4-methyl pentanoic acid]
Ki (ACE-2 [1]; 12 compound concentrations, Ki=Kiapp/(1+[S]/Km)): 0.1 to 0.5 µM
Ki (ACE-2 [2]; 12 compound concentrations): < 0.1 µM
